27 compounds from patent US9187464B2, “TRPV4 antagonists” (GlaxoSmithKline Intellectual Property (No. 2) Limited, priority 2011, dated 2015) can be followed below.

Molecules are shown by their SMILES.

This experiment concerns the target T1, human TRPV4 (Homo sapiens, UniProt Q9HBA0).
T1 construct: expressed in transfected cells; host or cells: HEK-293-MSR-II cells transduced with 1% BacMam virus
The experiment is described as follows: Ligand-gated assay (Fluo4 calcium, FLIPR; inhibition of agonist-induced activation). It counts as cell-based. Particulars: HEK-293-MSR-II cells transduced with BacMam human TRPV4; agonist at EC80. In a few lines: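 HEK-293-MSR-II cells BacMam-transduced with human TRPV4, loaded with 2 uM Fluo-4. Compound preincubated 10 min at room temperature in HBSS pH 7.4 plus 0.01% Chaps, then agonist added at its EC80. Inhibition of agonist-evoked calcium rise read on FLIPR; IC50 reported.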

T1 sequence (Q9HBA0 whole entry): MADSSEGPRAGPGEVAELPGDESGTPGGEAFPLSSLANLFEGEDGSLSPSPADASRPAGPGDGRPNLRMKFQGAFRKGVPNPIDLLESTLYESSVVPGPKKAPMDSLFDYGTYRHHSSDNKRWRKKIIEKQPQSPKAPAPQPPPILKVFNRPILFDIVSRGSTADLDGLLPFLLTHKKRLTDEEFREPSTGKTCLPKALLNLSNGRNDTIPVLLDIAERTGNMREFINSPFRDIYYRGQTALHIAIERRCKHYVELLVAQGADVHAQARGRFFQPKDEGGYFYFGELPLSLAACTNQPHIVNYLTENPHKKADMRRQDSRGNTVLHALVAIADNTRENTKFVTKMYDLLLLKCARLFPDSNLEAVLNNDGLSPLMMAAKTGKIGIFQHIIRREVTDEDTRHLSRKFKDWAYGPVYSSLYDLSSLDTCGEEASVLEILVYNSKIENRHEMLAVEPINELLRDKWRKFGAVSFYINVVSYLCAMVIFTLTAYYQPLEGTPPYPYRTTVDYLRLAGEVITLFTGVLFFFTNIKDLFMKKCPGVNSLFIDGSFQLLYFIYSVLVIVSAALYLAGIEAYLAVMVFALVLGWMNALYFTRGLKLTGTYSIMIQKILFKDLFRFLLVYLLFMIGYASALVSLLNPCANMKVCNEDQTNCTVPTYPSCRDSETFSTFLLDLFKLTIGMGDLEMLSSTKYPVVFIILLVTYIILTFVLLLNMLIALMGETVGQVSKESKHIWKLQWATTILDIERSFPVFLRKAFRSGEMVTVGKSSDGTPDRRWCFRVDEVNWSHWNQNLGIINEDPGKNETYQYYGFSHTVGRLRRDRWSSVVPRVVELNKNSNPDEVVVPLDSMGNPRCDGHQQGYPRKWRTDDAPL

As a reminder, the IC50 is the concentration that inhibits the measured activity by half. With `COc1ncccc1N1C[C@@]2(CCC[C@](C)(Cn3cnc4ccc(C#N)cc43)C2)OC1=O` [Example 109, 1-[{(5S,7S)-7-methyl-3-[2-(methyloxy)-3-pyridinyl]-2-oxo-1-oxa-3-azaspiro[4.5]dec-7-yl}methyl]-1H-benzimidazole-6-carbonitrile], the half-inhibitory concentration (IC50) lay in the range of 50 to 500 nM. `COc1ccc(N2C[C@@]3(CCC[C@](C)(Cn4cnc5ccc(C#N)cc54)C3)OC2=O)c(OC)n1` [Example 110, 1-({(5S,7S)-3-[2,6-bis(methyloxy)-3-pyridinyl]-7-methyl-2-oxo-1-oxa-3-azaspiro[4.5]dec-7-yl}methyl)-1H-benzimidazole-6-carbonitrile]: the IC50 lay within 0.1 to 10 nM. On to `COc1cc(C)c(N2C[C@@]3(CCC[C@H](Cn4cnc5ccc(C#N)cc54)C3)OC2=O)cn1` [Example 111, 1-({(5S,7S)-3-[4-methyl-6-(methyloxy)-3-pyridinyl]-2-oxo-1-oxa-3-azaspiro[4.5]dec-7-yl}methyl)-1H-benzimidazole-6-carbonitrile], for which the half-maximal inhibitory concentration (IC50) lay within 10 to 50 nM. Turning to `C[C@]1(Cn2cnc3ccc(C#N)cc32)CCC[C@@]2(CN(c3ncc(Cl)cc3Cl)C(=O)O2)C1` [Example 112, 1-(((7S)-3-(3,5-dichloropyridin-2-yl)-7-methyl-2-oxo-1-oxa-3-azaspiro[4.5]decan-7-yl)methyl)-1H-benzo[d]imidazole-6-carbonitrile], the IC50 fell in the range of 0.1 to 10 nM. The same measure for `CCOc1ncc(N2C[C@@]3(CCC[C@](C)(Cn4cnc5ccc(C#N)cc54)C3)OC2=O)cn1` [Example 113, 1-(((5S,7S)-3-(2-ethoxypyrimidin-5-yl)-7-methyl-2-oxo-1-oxa-3-azaspiro[4.5]decan-7-yl)methyl)-1H-benzo[d]imidazole-6-carbonitrile]: 10 to 50 nM; for `C[C@]1(Cn2cnc3ccc(C#N)cc32)CCC[C@@]2(CN(c3ncc(Cl)cc3F)C(=O)O2)C1` [Example 114, 1-(((5S,7S)-3-(5-chloro-3-fluoropyridin-2-yl)-7-methyl-2-oxo-1-oxa-3-azaspiro[4.5]decan-7-yl)methyl)-1H-benzo[d]imidazole-6-carbonitrile]: 0.1 to 10 nM; for `C[C@]1(Cn2cnc3ccc(C#N)cc32)CCC[C@@]2(CN(c3cnc(C(F)(F)F)cn3)C(=O)O2)C1` [Example 115, 1-(((5S,7S)-7-methyl-2-oxo-3-(5-(trifluoromethyl)pyrazin-2-yl)-1-oxa-3-azaspiro[4.5]decan-7-yl)methyl)-1H-benzo[d]imidazole-6-carbonitrile]: 0.1 to 10 nM. On to `CC(C)(C)c1ncc(N2C[C@@]3(CCC[C@H](Cn4cnc5ccc(C#N)cc54)C3)OC2=O)cn1` [Example 116, 1-(((5S,7S)-3-(2-(tert-butyl)pyrimidin-5-yl)-2-oxo-1-oxa-3-azaspiro[4.5]decan-7-yl)methyl)-1H-benzo[d]imidazole-6-carbonitrile], for which the IC50 fell in the range of 10 to 50 nM. As for `Cc1cnc(N2C[C@@]3(CCC[C@](C)(Cn4cnc5ccc(C#N)cc54)C3)OC2=O)cn1` [Example 117, 1-(((5S,7S)-7-methyl-3-(5-methylpyrazin-2-yl)-2-oxo-1-oxa-3-azaspiro[4.5]decan-7-yl)methyl)-1H-benzo[d]imidazole-6-carbonitrile], the IC50 was in the range of 50 to 500 nM.

For the compound `CCOc1cc(C)c(N2C[C@@]3(CCC[C@](C)(Cn4cnc5ccc(C#N)cc54)C3)OC2=O)cn1` [Example 118, 1-(((5S,7S)-3-(6-ethoxy-4-methylpyridin-3-yl)-7-methyl-2-oxo-1-oxa-3-azaspiro[4.5]decan-7-yl)methyl)-1H-benzo[d]imidazole-6-carbonitrile], the IC50 was 0.1 to 10 nM.

For `Cc1cc(Cl)ncc1N1C[C@@]2(CCC[C@](C)(Cn3cnc4ccc(C#N)cc43)C2)OC1=O` [Example 119, 1-(((5S,7S)-3-(6-chloro-4-methylpyridin-3-yl)-7-methyl-2-oxo-1-oxa-3-azaspiro[4.5]decan-7-yl)methyl)-1H-benzo[d]imidazole-6-carbonitrile], the IC50 is 0.1 to 10 nM.

Regarding `Cc1cc(Cl)ncc1N1C[C@@]2(CCC[C@H](Cn3cnc4ccc(C#N)cc43)C2)OC1=O` [Example 120, 1-(((5S,7S)-3-(6-chloro-4-methylpyridin-3-yl)-2-oxo-1-oxa-3-azaspiro[4.5]decan-7-yl)methyl)-1H-benzo[d]imidazole-6-carbonitrile], the IC50 was in the range of 0.1 to 10 nM. Consider `Cc1cc(Cl)cnc1N1C[C@@]2(CCC[C@](C)(Cn3cnc4ccc(C#N)cc43)C2)OC1=O` [Example 121, 1-(((5S,7S)-3-(5-chloro-3-methylpyridin-2-yl)-7-methyl-2-oxo-1-oxa-3-azaspiro[4.5]decan-7-yl)methyl)-1H-benzo[d]imidazole-6-carbonitrile], for which the IC50 was 0.1 to 10 nM.

In the case of `COc1cc(Cl)ncc1N1C[C@@]2(CCC[C@](C)(Cn3cnc4ccc(C#N)cc43)C2)OC1=O` [Example 122, 1-(((5S,7S)-3-(6-chloro-4-methoxypyridin-3-yl)-7-methyl-2-oxo-1-oxa-3-azaspiro[4.5]decan-7-yl)methyl)-1H-benzo[d]imidazole-6-carbonitrile], the IC50 lay within 0.1 to 10 nM.

Take `COc1cc(Cl)ncc1N1C[C@@]2(CCC[C@H](Cn3cnc4ccc(C#N)cc43)C2)OC1=O` [Example 123, 1-(((5S,7S)-3-(6-chloro-4-methoxypyridin-3-yl)-2-oxo-1-oxa-3-azaspiro[4.5]decan-7-yl)methyl)-1H-benzo[d]imidazole-6-carbonitrile]: the 50% inhibitory concentration (IC50) is 0.1 to 10 nM.

Consider `Cc1nc(C(F)(F)F)ncc1N1C[C@@]2(CCC[C@H](Cn3cnc4ccc(C#N)cc43)C2)OC1=O` [Example 124, 1-(((5S,7S)-3-(4-methyl-2-(trifluoromethyl)pyrimidin-5-yl)-2-oxo-1-oxa-3-azaspiro[4.5]decan-7-yl)methyl)-1H-benzo[d]imidazole-6-carbonitrile], for which the IC50 was 10 to 50 nM. Under `CCOc1cc(C)c(N2C[C@@]3(CCC[C@H](Cn4cnc5cc(F)c(C#N)cc54)C3)OC2=O)cn1` [Example 125, 1-(((5S,7S)-3-(6-ethoxy-4-methylpyridin-3-yl)-2-oxo-1-oxa-3-azaspiro[4.5]decan-7-yl)methyl)-5-fluoro-1H-benzo[d]imidazole-6-carbonitrile] stands 0.1 to 10 nM; under `COc1nc(C)ccc1N1C[C@@]2(CCC[C@](C)(Cn3cnc4ccc(C#N)cc43)C2)OC1=O` [Example 126, 1-(((5S,7S)-3-(2-methoxy-6-methylpyridin-3-yl)-7-methyl-2-oxo-1-oxa-3-azaspiro[4.5]decan-7-yl)methyl)-1H-benzo[d]imidazole-6-carbonitrile], 0.1 to 10 nM. As for `COc1cc(C)cnc1N1C[C@@]2(CCC[C@](C)(Cn3cnc4ccc(C#N)cc43)C2)OC1=O` [Example 127, 1-(((5S,7S)-3-(3-methoxy-5-methylpyridin-2-yl)-7-methyl-2-oxo-1-oxa-3-azaspiro[4.5]decan-7-yl)methyl)-1H-benzo[d]imidazole-6-carbonitrile], the concentration for half-maximal inhibition (IC50) lay in the range of 10 to 50 nM. Regarding `Cc1cnc(N2C[C@@]3(CCC[C@](C)(Cn4cnc5ccc(C#N)cc54)C3)OC2=O)c(Cl)c1` [Example 128, 1-(((5S,7S)-3-(3-chloro-5-methylpyridin-2-yl)-7-methyl-2-oxo-1-oxa-3-azaspiro[4.5]decan-7-yl)methyl)-1H-benzo[d]imidazole-6-carbonitrile], the half-inhibitory concentration (IC50) is 0.1 to 10 nM. Take `CCc1cccnc1N1C[C@@]2(CCC[C@](C)(Cn3cnc4ccc(C#N)cc43)C2)OC1=O` [Example 129, 1-(((5S,7S)-3-(3-ethylpyridin-2-yl)-7-methyl-2-oxo-1-oxa-3-azaspiro[4.5]decan-7-yl)methyl)-1H-benzo[d]imidazole-6-carbonitrile]: the concentration for half-maximal inhibition (IC50) fell in the range of 10 to 50 nM. In the case of `Cc1cnc(N2C[C@@]3(CCC[C@](C)(Cn4cnc5ccc(C#N)cc54)C3)OC2=O)c(C)n1` [Example 130, 1-(((5S,7S)-3-(3,5-dimethylpyrazin-2-yl)-7-methyl-2-oxo-1-oxa-3-azaspiro[4.5]decan-7-yl)methyl)-1H-benzo[d]imidazole-6-carbonitrile], the IC50 lay within 50 to 500 nM.

For `Cc1nc(C(F)(F)F)cnc1N1C[C@@]2(CCC[C@H](Cn3cnc4ccc(C#N)cc43)C2)OC1=O` [Example 131, 1-(((5S,7S)-3-(3-methyl-5-(trifluoromethyl)pyrazin-2-yl)-2-oxo-1-oxa-3-azaspiro[4.5]decan-7-yl)methyl)-1H-benzo[d]imidazole-6-carbonitrile], the half-maximal inhibitory concentration (IC50) was in the range of 50 to 500 nM. Turning to `COc1ncc(N2C[C@@]3(CCC[C@](C)(Cn4cnc5ccc(C#N)cc54)C3)OC2=O)cc1C` [Example 132, 1-(((5S,7S)-3-(6-methoxy-5-methylpyridin-3-yl)-7-methyl-2-oxo-1-oxa-3-azaspiro[4.5]decan-7-yl)methyl)-1H-benzo[d]imidazole-6-carbonitrile], the concentration for half-maximal inhibition (IC50) was 0.1 to 10 nM. As for `CC(C)(C#N)c1ccc(N2C[C@@]3(CCC[C@](C)(Cn4cnc5ccc(C#N)cc54)C3)OC2=O)cn1` [Example 133, 1-(((5S,7S)-3-(6-(2-cyanopropan-2-yl)pyridin-3-yl)-7-methyl-2-oxo-1-oxa-3-azaspiro[4.5]decan-7-yl)methyl]-1H-benzo[d]imidazole-6-carbonitrile], the IC50 fell in the range of 0.1 to 10 nM. Turning to `CC(C)(C)c1ncc(N2C[C@@]3(CCC[C@](C)(Cn4cnc5ccc(C#N)cc54)C3)OC2=O)cn1` [Example 134, 1-(((5S,7S)-3-(2-(tert-butyl)pyrimidin-5-yl)-7-methyl-2-oxo-1-oxa-3-azaspiro[4.5]decan-7-yl)methyl)-1H-benzo[d]imidazole-6-carbonitrile], the IC50 fell in the range of 0.1 to 10 nM. Regarding `COc1ccc(N2C[C@@]3(CCC[C@](C)(Cn4cnc5ccc(C#N)cc54)C3)OC2=O)nc1` [Example 135, 1-({(5S,7S)-7-methyl-3-[5-(methyloxy)-2-pyridinyl]-2-oxo-1-oxa-3-azaspiro[4.5]dec-7-yl}methyl)-1H-benzimidazole-6-carbonitrile], the concentration for half-maximal inhibition (IC50) was 50 to 500 nM.
